Data on 4 compounds can be found in US20160193179A1, “Treatment of Cardiovascular Risk in Diabetic Patients” (EVOLVA SA, priority 2012, published 2016).

A short description of data set [1]: Bioavailability (statement). The following applies: in vivo.
Data set [2] has as its system platelet aggregation in PRP of type-2 diabetic patients. As to the kind of experiment: Platelet aggregation in citrate-anticoagulated PRP, light transmission aggregometry (LTA). The class given is cell-based, human. The following applies: for ADP 5 late platelet aggregation (mean ± SD) / ADP 5 max platelet aggregation (mean ± SD): ADP 5 μM; for ADP 5 late platelet aggregation (mean ± SD) / ADP 20 late platelet aggregation (mean ± SD) / U-46619 late platelet aggregation (mean ± SD) / AA late platelet aggregation (mean ± SD) / COLL late platelet aggregation (mean ± SD): late aggregation at 6 minutes; for ADP 5 late platelet aggregation (mean ± SD) / ADP 5 max platelet aggregation (mean ± SD) / ADP 20 late platelet aggregation (mean ± SD) / ADP 20 max platelet aggregation (mean ± SD) / U-46619 late platelet aggregation (mean ± SD) / U-46619 max platelet aggregation (mean ± SD) / AA late platelet aggregation (mean ± SD) / COLL late platelet aggregation (mean ± SD) / COLL max platelet aggregation (mean ± SD): PRP ± 100 nM Compound 3 in vitro; for ADP 5 max platelet aggregation (mean ± SD) / ADP 20 max platelet aggregation (mean ± SD) / U-46619 max platelet aggregation (mean ± SD) / AA max platelet aggregation (mean ± SD) / COLL max platelet aggregation (mean ± SD): maximal aggregation; for ADP 20 late platelet aggregation (mean ± SD) / ADP 20 max platelet aggregation (mean ± SD): ADP 20 μM; for U-46619 late platelet aggregation (mean ± SD) / U-46619 max platelet aggregation (mean ± SD): U-46619 7 uM; for AA late platelet aggregation (mean ± SD) / AA max platelet aggregation (mean ± SD): arachidonic acid 1 mM; for AA max platelet aggregation (mean ± SD): PRP ± 100 nM Compound 3 in vitro 10 min 37°C; for COLL late platelet aggregation (mean ± SD) / COLL max platelet aggregation (mean ± SD): collagen 3 ug/ml. As to the method:
Patient population: Ten patients affected by type-2 diabetes mellitus and CAD (coronary artery disease), on chronic daily treatment with 81 mg aspirin (enteric coated acetylsalicylic acid, Cardioaspirin, Bayer, Germany) are switched to clopidogrel (75 mg/day) monotherapy for 7-10 days prior to study. Pharmacodynamic assessments are performed while on aspirin (81 mg) monotherapy and clopidogrel (75 mg) monotherapy.
Blood sampling with 19-gauge needle or larger without the use of tourniquet. The first two ml of blood sampled was discarded. The venous blood samples are drawn into tri-sodium citrate filled tubes (BD Vacutainer 0.109 M. Ref. 363048) for the LTA. All tri-sodium citrate used to anticoagulate a blood sample remains in the plasma phase since it was not taken up by platelets, erythrocytes and leukocytes. Citrate plasma concentration and the resulting free plasma Ca2+ needed for platelet aggregation is directly determined by the individual haematocrit.
Platelet-rich plasma (PRP) is prepared by centrifugation at 120×g for 10 min at room temperature. Autologous platelet-poor plasma (PPP) is prepared by centrifugation at 2300×g for 15 min at room temperature. The PRP platelet count is adjusted to 250.000/ul by the autologous PPP. Stability for the platelet aggregation test is 2 hours at room temperature. Platelet aggregation is performed using LTA [2-5]. Blood is collected in citrated tubes. Citrate concentrations are adjusted according to the individual haematocrit levels according to prior LTA studies using Evolva compound. LTA is assessed using PRP by the turbidimetric method in a 2-channel aggregometer (Chrono-Log 490 Model, Chrono-Log Corp., Havertown) according to the instructions of the manufacturer. Light transmission is adjusted to 0% with the PRP and to 100% for the PPP for each measurement. Curves are recorded for 6 minutes. Platelet aggregation is determined as the maximal percent change in light transmittance from baseline using PPP as a reference as well as late platelet aggregation at 6 minutes. Platelet agonists include U-46619 (7 uM), arachidonic acid (1 mM), collagen (3 ug/ml) and ADP (20 μM and 5 μM). Pharmacodynamic testing is performed following 10 min in vitro incubation at 37° C. of PRP with 100 nM Compound 3 and without 100 nM Compound 3 (placebo).
Total of 10 LTA analysis per patient at each time point; total 2 time points=20 assessments. Table 1 and FIG. 6B compare aspirin vs. aspirin+Compound 3, Table 2 and FIG. 7A compare clopidogrel vs. clopidigrel+Comppound 3, and Table 3 and FIG. 7B compare aspirin+Compound 3 vs. clopidogrel+Comound 3.

Data set [3] relates to human coronary artery smooth muscle cells. As to the kind of experiment: Human coronary artery smooth muscle cell proliferation (WST-1). In kind it is cell-based. As to the method:
Human coronary artery SMC is cultured in SmGM2 kit medium. At 80% confluence, the SMCs are trypsinized and resuspended in either DMEM supplemented with 2% FCS (“low serum media”), or in SmGM2 kit medium containing 5% FCS, 2 ng/ml FGF, 0.5 ng/ml EGF, 5 μg/ml insulin (“growth factor media”). Subsequently, 5000 cells in 200 μL are added to each well in a 96-well plate and left to adhere overnight. Either vehicle or Compound 3 (50 nM, 500 nM, 5 μM) is added to the wells 1 h before U 46619 at different concentrations (0.1 nM to 10 μM) and incubated for another 48 h. All experiments are repeated 3-5 times for each experimental condition.
Cell proliferation is evaluated using WST-1 reagent according to the manufacturer's instructions. In brief, after replacement of phenol red containing media by 200 μL transparent serum-supplemented DMEM, 10 μL of diluted WST-1 reagent is added to each well at the end of the 48 h incubation period. After 1 h incubation at 37° C., the absorbance of the formazan dye formed is measured at 440 nm using a microplate reader.
All results are expressed as mean±SE. Statistically significant differences are determined by a one-way analysis of variances, followed by Holm-Sidak post hoc test, for multiple comparisons, using Sigma Stat software. A P value of less than 0.05 is considered significant.

Regarding `O=C(O)CC/C=C\C[C@@H]1CO[C@H](c2ccccc2Cl)O[C@@H]1c1ccccc1O` (single isomer, unassigned) [Compound 2], the solubility entry in “Solubility (statement)” was “poor solubility”. In data set [1], the bioavailability result is recorded as “poor”.
In the case of `CC(=O)Oc1ccccc1C(=O)O` [ASA, acetylsalicylic acid], in data set [2], the “ADP 5 late platelet aggregation (mean ± SD)” value is listed as 46.3 ± 15%, the “ADP 5 max platelet aggregation (mean ± SD)” value is 52.6 ± 12%, the “ADP 20 late platelet aggregation (mean ± SD)” value is given as 72 ± 6% and the “ADP 20 max platelet aggregation (mean ± SD)” value is on record as 74.3 ± 6%. Further, in data set [2], the “U-46619 late platelet aggregation (mean ± SD)” value turned out to be 74.9 ± 4.6%, the “U-46619 max platelet aggregation (mean ± SD)” value amounted to 77 ± 5.2%, the “AA late platelet aggregation (mean ± SD)” value is given as 8.5 ± 23% and the “AA max platelet aggregation (mean ± SD)” value turned out to be 9.4 ± 22.7%. In data set [2], the “COLL late platelet aggregation (mean ± SD)” value is given as 59.6 ± 17.2% and the “COLL max platelet aggregation (mean ± SD)” value stood at 61.4 ± 17.6%.
`COC(=O)[C@H](c1ccccc1Cl)N1CCc2sccc2C1` [CLOP, clopidogrel]: in data set [2], the “ADP 5 late platelet aggregation (mean ± SD)” value was determined as 19.7 ± 21.9%, the “ADP 5 max platelet aggregation (mean ± SD)” value is reported as 32.8 ± 17.2%, the “ADP 20 late platelet aggregation (mean ± SD)” value is recorded as 44.6 ± 18.9% and the “ADP 20 max platelet aggregation (mean ± SD)” value was found to be 54.8 ± 13.3%. In data set [2], the “U-46619 late platelet aggregation (mean ± SD)” value came to 68.8 ± 13.8%, the “U-46619 max platelet aggregation (mean ± SD)” value came out at 71.6 ± 11.6%, the “AA late platelet aggregation (mean ± SD)” value is on record as 47.6 ± 28.2% and the “AA max platelet aggregation (mean ± SD)” value was found to be 49.7 ± 28.2%. In addition, in data set [2], the “COLL late platelet aggregation (mean ± SD)” value amounted to 70.5 ± 10.5% and the “COLL max platelet aggregation (mean ± SD)” value was determined as 72.6 ± 10.2%.
As for `CCCCC[C@H](O)/C=C/[C@@H]1[C@@H](C/C=C\CCCC(=O)O)[C@H]2CO[C@@H]1C2` [Compound U46619], the “concentration of maximal response (cell number, WST-1)” value in data set [3] (growth factor media) amounted to 1 nM. Moreover, in data set [3] (growth factor media, U46619 0.1 nM to 10 μM, 48 h), the “cell number assessed by WST-1” value is listed as “bell-shaped concentration-dependent increase”. In addition, the “absorbance vs. vehicle-treated cells (WST-1)” value in data set [3] (growth factor media, U46619 at 0.1 μM and higher) is on record as “does not significantly differ”. Also, the SMC proliferation result in data set [3] (low serum media (2% FCS)) is listed as “did not significantly alter”.
